Data as given in patent publication US5561111A, “Stable glutamine derivatives for oral and intravenous rehydration and nutrition therapy” (The University of Virginia Patent Foundation, priority 1994, dated 1996).
Peptide text beside a SMILES is read from it.

Tested on: rabbit ileal mucosa
Experiment: Intestinal sodium cotransport in rabbit ileal mucosa mounted in Ussing chambers
Experimental: To study intestinal sodium cotransport using the compounds of the present invention, Ala-Glu and Ala-Gln were tested according to the method of Lima et al, Brazilian J. Med Biol. Res., 25:637-640 (1992) for measuring intestinal sodium cotransport in rabbit ileal mucosa mounted in Ussing chambers. […] As shown the dose response increases dramatically in a non-linear fashion. […] The pD2 value is related to the ED50 in accordance with the following formula: -log ED50 =pD2.

## C[C@H](N)C(=O)N[C@@H](CCC(N)=O)C(=O)O [Ala-Gln, alanyl-glutamine] (H-Ala-Gln-OH)
  maximum increase (Emax) in Isc: 150 μA/cm^2
